# Patent US9234050B2, “Chitosan derivatives to treat animals or optimize animal health” (priority 2008, dated 2016)
# Like-named read-outs stand apart in the source and are kept apart here. Where a SMILES comes first, the peptide text is derived from it. Bridges are numbered along the chain shown (N, C = ends). [ ]: non-standard residue; d: D form. The star is where a group is joined. Ileψ(thiazoline)Cys = CC[C@H](C)[C@H](N)C1=N[C@H](C(=O)*)CS1; dOrn = NCCC[C@@H](N)C(=O)O
# Tests used:
# [1] = test system: C. perfringens (ATCC 12919); type: cell-based
# [2] = Poultry study in feed (weight gain); type: in vivo, chicks; conditions: dosage 55 mg/kg in feed; treated feed fed for 8 days
# Source text: Various doses of two different functionalized chitosan-arginines were mixed in feed, both originally 84% degree of deacetylation. “10% functionalized” has a MW of 39 kDa, 12% functionalized, % DDA=82 and polydispersity index (PDI) of 1.5. “30% functionalized” has a MW of 27 kDa, 26% functionalized, % DDA=82 and polydispersity index (PDI) of 1.7. Dosing of feed may be irregular due to challenges in mixing extremely small quantities of material uniformly (sprayed on cornmeal from water solution, mixed with feedmeal). Twelve replicate pens of five chicks were used for each treatment. Treated feed was fed for 8 days, and weight gain and feed conversion were examined after 21 days (comparison with day 1). Awt21 is the average weight gain after 21 days and P Diff is the statistical P value between the measured and control.
# [3] = test system: S. enterica (ATCC 700720)
# [4] = test system: P. multocida (ATCC 11039); conditions: for Bacitracin (log reduction alone): BAC 32 μg/mL
compound,measurement,setting,value
CN(C)[C@@H]1C(O)=C(C(N)=O)C(=O)[C@@]2(O)C(O)=C3C(=O)c4c(O)cccc4[C@@](C)(O)[C@H]3C[C@@H]12 [Tetracycline],Tetracycline (log reduction alone),"[1]; Assay 1, TET 0.05 μg/mL",0.1 log
same,Tetracycline (log reduction alone),"[1]; Assay 2, TET 0.2 μg/mL",0.1 log
Penicillin,Awt21 (average weight gain after 21 days),[2],0.852 kg
CC[C@H](C)[C@H](N)C1=N[C@H](C(=O)N[C@@H](CC(C)C)C(=O)N[C@H](CCC(=O)O)C(=O)N[C@H](C(=O)N[C@H]2CCCCNC(=O)[C@H](CC(N)=O)NC(=O)[C@@H](CC(=O)O)NC(=O)[C@H](Cc3cnc[nH]3)NC(=O)[C@@H](Cc3ccccc3)NC(=O)[C@H]([C@@H](C)CC)NC(=O)[C@@H](CCCN)NC2=O)[C@@H](C)CC)CS1 [Bacitracin] ({Ileψ(thiazoline)Cys}-L[dE]IK[dOrn]I[dF]H[dD]N; lactam 4-C),Bacitracin (log reduction alone),"[3]; Assay 1, BAC 4 μg/mL",0.08 log
same,Bacitracin (log reduction alone),"[3]; Assay 1, BAC 8 μg/mL",0.08 log
same,Bacitracin (log reduction alone),"[3]; Assay 2, BAC 2 μg/mL",0.2 log
same,Bacitracin (log reduction alone),"[3]; Assay 2, BAC 4 μg/mL",0 log
same,Bacitracin (log reduction alone),[4]; Assay 1,0 log
same,Bacitracin (log reduction alone),[4]; Assay 2,0.2 log
same,bactericidal concentration,[4]; P. multocida (ATCC 11039),> 128 µg/mL
